Assay results taken from patent publication US20210300940A1 (Merck Patent GmbH, priority 2018, published 2021).
Structures can show the parent of a compound that is named as a salt.

Legend:
[1] = target: T1, TLR8 (Homo sapiens, UniProt Q9NR97); assay: HEK/293 TLR8 Cell Assay; type: cell-based; settings: HEK cells, R848 agonist 30 uM final concentration, Steady-Glo readout; read-out: TLR8 potency
T1 construct: expressed in transfected cells; host or cells: HEK/293 reporter cells (NF-kB luciferase)
T1 sequence (Q9NR97 27-1041): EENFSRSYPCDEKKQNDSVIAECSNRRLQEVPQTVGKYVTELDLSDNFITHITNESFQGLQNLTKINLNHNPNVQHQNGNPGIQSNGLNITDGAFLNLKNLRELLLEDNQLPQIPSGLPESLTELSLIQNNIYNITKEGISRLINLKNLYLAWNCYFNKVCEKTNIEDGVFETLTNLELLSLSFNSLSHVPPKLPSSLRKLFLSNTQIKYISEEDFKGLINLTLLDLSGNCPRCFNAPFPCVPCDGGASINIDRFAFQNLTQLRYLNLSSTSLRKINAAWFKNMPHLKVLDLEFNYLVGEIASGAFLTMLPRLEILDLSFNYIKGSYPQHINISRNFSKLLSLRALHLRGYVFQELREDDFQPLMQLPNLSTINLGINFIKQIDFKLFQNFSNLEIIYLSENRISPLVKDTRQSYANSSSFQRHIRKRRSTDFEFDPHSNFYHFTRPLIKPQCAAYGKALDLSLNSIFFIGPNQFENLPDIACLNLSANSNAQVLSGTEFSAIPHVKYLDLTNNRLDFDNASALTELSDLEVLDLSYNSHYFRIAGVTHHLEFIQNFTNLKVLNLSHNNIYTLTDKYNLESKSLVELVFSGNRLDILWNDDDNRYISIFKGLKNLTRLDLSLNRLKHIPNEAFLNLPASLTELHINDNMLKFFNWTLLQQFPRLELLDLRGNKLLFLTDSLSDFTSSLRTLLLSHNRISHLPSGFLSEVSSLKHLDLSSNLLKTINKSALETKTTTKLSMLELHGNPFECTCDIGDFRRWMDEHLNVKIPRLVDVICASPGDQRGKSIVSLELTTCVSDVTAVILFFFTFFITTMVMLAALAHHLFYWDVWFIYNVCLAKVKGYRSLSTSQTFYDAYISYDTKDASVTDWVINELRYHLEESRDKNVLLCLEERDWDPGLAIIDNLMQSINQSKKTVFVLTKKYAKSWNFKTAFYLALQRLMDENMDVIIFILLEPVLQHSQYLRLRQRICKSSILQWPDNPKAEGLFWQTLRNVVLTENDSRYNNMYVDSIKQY

[2] = target: T2, TLR7 (Homo sapiens, UniProt Q9NYK1); assay: HEK/293 TLR7 Cell Assay; type: cell-based; settings: TLR7/NFKb HEK cells, R848 agonist 10 uM final concentration, Steady-Glo readout; read-out: TLR7 potency
T2 construct: expressed in transfected cells; host or cells: HEK/293 cells carrying TLR7 and an NF-kB luciferase reporter
T2 sequence (Q9NYK1 27-1049): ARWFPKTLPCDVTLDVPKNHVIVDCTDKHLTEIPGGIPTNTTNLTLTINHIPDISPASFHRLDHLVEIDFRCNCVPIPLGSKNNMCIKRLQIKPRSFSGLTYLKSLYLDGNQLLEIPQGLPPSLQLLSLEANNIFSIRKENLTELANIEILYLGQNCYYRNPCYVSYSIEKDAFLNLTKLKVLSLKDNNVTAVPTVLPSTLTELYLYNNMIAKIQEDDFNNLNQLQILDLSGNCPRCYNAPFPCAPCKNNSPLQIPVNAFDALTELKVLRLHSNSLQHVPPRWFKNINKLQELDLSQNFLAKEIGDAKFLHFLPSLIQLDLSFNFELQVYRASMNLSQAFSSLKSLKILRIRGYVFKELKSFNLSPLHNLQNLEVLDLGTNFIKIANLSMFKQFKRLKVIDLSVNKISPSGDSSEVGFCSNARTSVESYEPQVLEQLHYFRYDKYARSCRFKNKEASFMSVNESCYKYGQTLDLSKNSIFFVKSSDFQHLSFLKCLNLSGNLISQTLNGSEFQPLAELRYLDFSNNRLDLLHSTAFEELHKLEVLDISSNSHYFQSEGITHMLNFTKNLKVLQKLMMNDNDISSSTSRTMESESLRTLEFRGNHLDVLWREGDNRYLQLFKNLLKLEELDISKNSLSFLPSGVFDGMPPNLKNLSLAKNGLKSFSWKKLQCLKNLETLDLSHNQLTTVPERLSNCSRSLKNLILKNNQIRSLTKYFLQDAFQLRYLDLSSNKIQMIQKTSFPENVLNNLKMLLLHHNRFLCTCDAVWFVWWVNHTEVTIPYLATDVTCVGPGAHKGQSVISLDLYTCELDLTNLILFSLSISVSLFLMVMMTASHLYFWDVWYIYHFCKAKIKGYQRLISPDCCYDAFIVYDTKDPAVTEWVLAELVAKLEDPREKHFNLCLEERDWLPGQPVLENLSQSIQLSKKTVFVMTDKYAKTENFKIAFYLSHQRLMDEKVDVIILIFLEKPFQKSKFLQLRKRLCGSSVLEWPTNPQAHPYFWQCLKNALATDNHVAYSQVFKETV
Method in brief: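 Compounds added to HEK cells expressing TLR7 with an NFκB reporter 30 min ahead of 10 uM R848 challenge; luciferase signal (Steady-Glo) measured after 5 h, cells having been seeded 24 h earlier at 5000 per well.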

Row | SMILES | IC50 [1] [nM] | IC50 [2] [nM]
1 | C[C@@H]1CN(c2ccc(C#N)c3nccnc23)C[C@H](C(=O)N2C[C@@H](N)C3(CC3)C2)O1 [Example 288, 8-[(2R,6R)-2-((S)-7-Amino-5-aza-spiro[2.4]heptane-5-carbonyl)-6-methyl-morpholin-4-yl]-quinoxaline-5-carbonitrile] | < 75 | < 75
2 | C[C@@H]1CN(c2ccc(C#N)c3nccnc23)C[C@H](C(=O)NC2CCNCC2(F)F)O1 (stereo partly drawn) [Example 289, (2R,6R)-4-(8-Cyano-quinoxalin-5-yl)-6-methyl-morpholine-2-carboxylic acid (3,3-difluoro-piperidin-4-yl)-amide] | < 75 | < 75
3 | C[C@@H]1CN(c2ccc(C#N)c3nccnc23)C[C@H](C(=O)NCC2(F)CCNCC2)O1 [Example 290, (2R,6R)-4-(8-Cyano-quinoxalin-5-yl)-6-methyl-morpholine-2-carboxylic acid (4-fluoro-piperidin-4-ylmethyl)-amide] | < 75 | < 75
4 | C[C@@H]1CN(c2ccc(C#N)c3nccnc23)C[C@H](C(=O)NC2CCNC3(CCC3)C2)O1 (stereo partly drawn) [Example 291, (2R,6R)-4-(8-Cyano-quinoxalin-5-yl)-6-methyl-morpholine-2-carboxylic acid (5-aza-spiro[3.5]non-8-yl)-amide] | < 75 | < 75
5 | C[C@@H]1CN(c2ccc(C#N)c3nccnc23)C[C@H](C(=O)NCC2(F)CCNC2)O1 (stereo partly drawn) [Example 292, (2R,6R)-4-(8-Cyano-quinoxalin-5-yl)-6-methyl-morpholine-2-carboxylic acid (3-fluoro-pyrrolidin-3-ylmethyl)-amide] | < 75 | < 75
6 | C[C@@H]1CN(c2ccc(C#N)c3nccnc23)C[C@H](C(=O)NCC2(F)CNC2)O1 [Example 293, (2R,6R)-4-(8-Cyano-quinoxalin-5-yl)-6-methyl-morpholine-2-carboxylic acid (3-fluoro-azetidin-3-ylmethyl)-amide] | < 75 | < 75
7 | C[C@@H]1CN(c2ccc(C#N)c3nccnc23)C[C@H](C(=O)N[C@H]2CNC[C@H]2F)O1 [Example 294, (2R,6R)-4-(8-Cyano-quinoxalin-5-yl)-6-methyl-morpholine-2-carboxylic acid ((3S,4R)-4-fluoro-pyrrolidin-3-yl)-amide hydrochloride (2)] | < 75 | < 75
8 | C[C@@H]1CN(c2ccc(C#N)c3nccnc23)C[C@H](C(=O)N2C[C@H](N)C[C@H](C(F)(F)F)C2)O1 [Example 295, 8-[(2R,6R)-2-((3R,5S)-3-Amino-5-trifluoromethyl-piperidine-1-carbonyl)-6-methyl-morpholin-4-yl]-quinoxaline-5-carbonitrile hydrochloride (2)] | < 75 | < 75
9 | C[C@@H]1CN(c2ccc(C#N)c3ncncc23)C[C@H](C(=O)NC2CCNCC2(F)F)O1 (stereo partly drawn) [Example 299, (2R,6R)-4-(8-Cyano-quinazolin-5-yl)-6-methyl-morpholine-2-carboxylic acid (3,3-difluoro-piperidin-4-yl)-amide] | < 75 | < 75

Next, values leading:

Row | IC50 [1] [nM] | IC50 [2] [nM] | SMILES
10 | < 75 | < 75 | C[C@@H]1CN(c2cnc(C#N)c3ncccc23)C[C@H](C(=O)NCC2CCCN2C)O1 (stereo partly drawn) [Example 273, (2R,6R)-4-(8-Cyano-[1,7]naphthyridin-5-yl)-6-methyl-morpholine-2-carboxylic acid (1-methyl-pyrrolidin-2-ylmethyl)-amide]
11 | < 75 | < 75 | C[C@@H]1CN(c2cnc(C#N)c3ncccc23)C[C@H](C(=O)NC[C@H]2CN(C)CCO2)O1 [Example 274, (2R,6R)-4-(8-Cyano-[1,7]naphthyridin-5-yl)-6-methyl-morpholine-2-carboxylic acid ((S)-4-methyl-morpholin-2-ylmethyl)-amide]
12 | < 75 | < 75 | C[C@@H]1CN(c2cnc(C#N)c3ncccc23)C[C@H](C(=O)NC[C@@H]2CN(C)CCO2)O1 [Example 275, (2R,6R)-4-(8-Cyano-[1,7]naphthyridin-5-yl)-6-methyl-morpholine-2-carboxylic acid ((R)-4-methyl-morpholin-2-ylmethyl)-amide]
13 | 75 to 150 | < 75 | C[C@@H]1CN(c2cnc(C#N)c3ncccc23)C[C@H](C(=O)NC[C@H]2CCCN2C)O1 [Example 276, (2R,6R)-4-(8-Cyano-[1,7]naphthyridin-5-yl)-6-methyl-morpholine-2-carboxylic acid ((R)-1-methyl-pyrrolidin-2-ylmethyl)-amide]
14 | < 75 | < 75 | C[C@@H]1CN(c2cnc(C#N)c3ncccc23)C[C@H](C(=O)NC2CCC(N3CCOCC3)CC2)O1 (stereo partly drawn) [Example 277, (2R,6R)-4-(8-Cyano-[1,7]naphthyridin-5-yl)-6-methyl-morpholine-2-carboxylic acid (4-morpholin-4-yl-cyclohexyl)-amide]
15 | < 75 | < 75 | Cc1c(F)cc(N2C[C@@H](C)O[C@@H](C(=O)N[C@H]3CNC[C@H]3F)C2)c2cccnc12 [Example 298, (2R,6R)-4-(7-Fluoro-8-methyl-quinolin-5-yl)-6-methyl-morpholine-2-carboxylic acid ((3S,4R)-4-fluoro-pyrrolidin-3-yl)-amide]
16 | 75 to 150 | < 75 | C[C@@H]1CN(c2cnc(C#N)c3ncccc23)C[C@H](C(=O)NCC2(F)CCNCC2)O1 [Example 300, (2R,6R)-4-(8-Cyano-[1,7]naphthyridin-5-yl)-6-methyl-morpholine-2-carboxylic acid (4-fluoro-piperidin-4-ylmethyl)-amide]
17 | < 75 | < 75 | C[C@@H]1CN(c2cnc(C#N)c3ncccc23)C[C@H](C(=O)NCC2(F)CNC2)O1 [Example 301, (2R,6R)-4-(8-Cyano-[1,7]naphthyridin-5-yl)-6-methyl-morpholine-2-carboxylic acid (3-fluoro-azetidin-3-ylmethyl)-amide]
18 | > 150 | > 150 | C[C@@H]1CN(c2cnc(C#N)c3ncccc23)C[C@H](C(=O)NC2CCNCC2(F)F)O1 (stereo partly drawn) [Example 302, (2R,6R)-4-(8-Cyano-[1,7]naphthyridin-5-yl)-6-methyl-morpholine-2-carboxylic acid (3,3-difluoro-piperidin-4-yl)-amide]
19 | > 150 | 75 to 150 | C[C@@H]1CN(c2ccc(C#N)c3nccnc23)C[C@H](C(=O)N[C@@H](CO)C(=O)O)O1 [Example 321, (S)-2-{[(2R,6R)-4-(8-Cyano-quinoxalin-5-yl)-6-methyl-morpholine-2-carbonyl]-amino}-3-hydroxy-propionic acid]
